Publication PMC11649115, “In vitro safety evaluation of dopamine D3R antagonist, R-VK4-116, as a potential medication for the treatment of opioid use disorder” (PLOS ONE, 2024)

Columns and labels:
[1] = biological target: CYP2C9 (Homo sapiens, UniProt P11712); experiment: CYP inhibition in human liver microsomes; conditions: human, human liver microsomes, probe diclofenac
[2] = biological target: T1, CYP2C8 (Homo sapiens, UniProt P10632); experiment: in vitro; conditions: microsomes
T1 sequence (P10632 1-490): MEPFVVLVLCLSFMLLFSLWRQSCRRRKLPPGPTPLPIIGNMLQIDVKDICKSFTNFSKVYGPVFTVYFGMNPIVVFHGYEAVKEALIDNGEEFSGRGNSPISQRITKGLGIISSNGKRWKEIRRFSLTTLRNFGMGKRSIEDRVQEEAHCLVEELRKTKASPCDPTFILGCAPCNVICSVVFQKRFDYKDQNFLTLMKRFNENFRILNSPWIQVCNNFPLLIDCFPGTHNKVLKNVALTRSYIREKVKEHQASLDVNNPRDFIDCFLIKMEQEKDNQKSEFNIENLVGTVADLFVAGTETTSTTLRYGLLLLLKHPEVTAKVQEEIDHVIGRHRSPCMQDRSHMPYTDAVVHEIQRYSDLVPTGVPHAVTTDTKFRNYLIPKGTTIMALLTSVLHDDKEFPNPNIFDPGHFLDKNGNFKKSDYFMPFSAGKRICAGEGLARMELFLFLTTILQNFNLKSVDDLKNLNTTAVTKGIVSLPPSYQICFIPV

[3] = biological target: CYP2D6 (Homo sapiens, UniProt P10635); experiment: CYP inhibition in human liver microsomes; conditions: human, human liver microsomes, probe bufuralol
CYP2D6, sequence (P10635 whole entry): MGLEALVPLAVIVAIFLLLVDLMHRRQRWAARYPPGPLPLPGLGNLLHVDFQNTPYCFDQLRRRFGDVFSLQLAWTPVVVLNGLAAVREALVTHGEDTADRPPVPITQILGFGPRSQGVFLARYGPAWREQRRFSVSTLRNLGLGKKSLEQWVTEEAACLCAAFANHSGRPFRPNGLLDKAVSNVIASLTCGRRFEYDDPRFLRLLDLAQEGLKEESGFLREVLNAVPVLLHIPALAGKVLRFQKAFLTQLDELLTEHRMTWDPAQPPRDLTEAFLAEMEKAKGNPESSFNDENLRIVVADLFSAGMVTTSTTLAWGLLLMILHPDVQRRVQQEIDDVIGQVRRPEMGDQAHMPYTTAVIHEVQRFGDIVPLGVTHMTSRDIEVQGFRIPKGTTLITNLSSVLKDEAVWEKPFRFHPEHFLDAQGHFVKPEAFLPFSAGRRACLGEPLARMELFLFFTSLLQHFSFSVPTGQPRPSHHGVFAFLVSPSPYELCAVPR

[4] = biological target: T2, CYP2B6 (Homo sapiens, UniProt P20813); experiment: CYP inhibition in human liver microsomes; conditions: human, human liver microsomes, probe bupropion
T2 sequence (P20813 1-491): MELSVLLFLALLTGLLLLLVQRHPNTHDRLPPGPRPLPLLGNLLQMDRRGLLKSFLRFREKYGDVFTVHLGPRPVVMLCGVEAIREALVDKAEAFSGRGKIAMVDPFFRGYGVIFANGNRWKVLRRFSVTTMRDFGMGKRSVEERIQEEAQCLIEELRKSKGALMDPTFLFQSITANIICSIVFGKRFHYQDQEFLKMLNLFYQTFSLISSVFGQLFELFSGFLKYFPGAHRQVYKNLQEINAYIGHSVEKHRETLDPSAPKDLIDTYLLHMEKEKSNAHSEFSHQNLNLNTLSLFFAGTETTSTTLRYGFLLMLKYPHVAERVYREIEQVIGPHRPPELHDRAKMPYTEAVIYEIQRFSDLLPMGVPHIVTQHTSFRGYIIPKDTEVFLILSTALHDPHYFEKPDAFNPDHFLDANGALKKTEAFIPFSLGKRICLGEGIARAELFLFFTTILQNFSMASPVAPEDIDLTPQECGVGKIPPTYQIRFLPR

[5] = biological target: CYP2C19 (Homo sapiens, UniProt P33261); experiment: CYP inhibition in human liver microsomes; conditions: human, human liver microsomes, probe mephenytoin
CYP2C19, sequence (P33261 whole entry): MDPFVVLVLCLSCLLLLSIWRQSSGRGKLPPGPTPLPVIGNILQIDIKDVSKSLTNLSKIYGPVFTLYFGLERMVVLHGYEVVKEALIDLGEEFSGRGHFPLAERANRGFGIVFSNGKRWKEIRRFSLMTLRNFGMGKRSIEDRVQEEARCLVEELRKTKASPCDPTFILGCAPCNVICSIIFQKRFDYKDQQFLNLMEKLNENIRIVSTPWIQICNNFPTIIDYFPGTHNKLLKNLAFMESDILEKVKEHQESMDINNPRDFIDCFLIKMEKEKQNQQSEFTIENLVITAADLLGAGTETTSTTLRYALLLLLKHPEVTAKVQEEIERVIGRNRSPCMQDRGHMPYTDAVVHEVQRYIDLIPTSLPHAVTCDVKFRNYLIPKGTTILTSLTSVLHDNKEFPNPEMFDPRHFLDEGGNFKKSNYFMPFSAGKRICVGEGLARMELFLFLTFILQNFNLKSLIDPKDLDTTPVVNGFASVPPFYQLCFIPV

[6] = biological target: CYP3A4 (Homo sapiens, UniProt P08684); experiment: in vitro; conditions: microsomes
CYP3A4, sequence (P08684 2-503): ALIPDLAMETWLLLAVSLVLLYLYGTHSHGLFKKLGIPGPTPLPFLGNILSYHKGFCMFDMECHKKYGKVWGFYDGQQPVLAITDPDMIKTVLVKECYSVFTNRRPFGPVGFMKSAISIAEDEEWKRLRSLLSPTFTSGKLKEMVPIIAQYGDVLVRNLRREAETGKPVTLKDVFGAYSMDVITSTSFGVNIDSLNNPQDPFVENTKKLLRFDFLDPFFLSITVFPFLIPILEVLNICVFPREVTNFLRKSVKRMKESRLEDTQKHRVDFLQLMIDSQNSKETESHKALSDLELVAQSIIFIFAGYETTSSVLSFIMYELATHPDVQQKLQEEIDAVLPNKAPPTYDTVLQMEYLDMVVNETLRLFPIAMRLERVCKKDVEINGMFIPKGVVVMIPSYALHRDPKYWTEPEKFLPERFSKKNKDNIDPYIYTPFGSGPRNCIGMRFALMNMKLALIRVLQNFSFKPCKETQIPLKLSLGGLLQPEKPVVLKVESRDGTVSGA

[7] = biological target: T3, CYP1A2 (Homo sapiens, UniProt P05177); experiment: CYP inhibition in human liver microsomes; conditions: human, human liver microsomes, probe phenacetin
T3 sequence (P05177 1-516): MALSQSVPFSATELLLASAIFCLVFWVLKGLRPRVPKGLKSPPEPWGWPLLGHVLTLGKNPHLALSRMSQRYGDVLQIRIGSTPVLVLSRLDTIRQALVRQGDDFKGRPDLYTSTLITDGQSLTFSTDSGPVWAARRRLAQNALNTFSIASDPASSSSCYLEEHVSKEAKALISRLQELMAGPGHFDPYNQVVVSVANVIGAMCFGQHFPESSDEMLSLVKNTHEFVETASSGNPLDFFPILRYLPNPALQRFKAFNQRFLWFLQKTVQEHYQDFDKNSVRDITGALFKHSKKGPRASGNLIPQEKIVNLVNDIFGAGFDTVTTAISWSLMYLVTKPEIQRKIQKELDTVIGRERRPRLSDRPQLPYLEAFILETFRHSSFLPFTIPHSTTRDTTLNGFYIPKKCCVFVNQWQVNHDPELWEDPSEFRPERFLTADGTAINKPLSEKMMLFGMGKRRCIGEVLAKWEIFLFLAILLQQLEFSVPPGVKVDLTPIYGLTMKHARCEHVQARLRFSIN

[8] = test system: cardiovascular effects; conditions: dogs ref 4, 9; cited from earlier work
[9] = biological target: T4, MATE2-K (Homo sapiens, UniProt Q86VL8); experiment: Transporter mediated assay (substrate/inhibitor), MDCK-II cells; format: in vitro ADME; conditions: human, polarized monolayer of MDCK-II cells expressing MATE2-K, No BSA, 100 μM
T4 construct: expressed in transfected cells; host or cells: MDCK-II cells
T4 sequence (Q86VL8 1-566 isoform Q86VL8-3): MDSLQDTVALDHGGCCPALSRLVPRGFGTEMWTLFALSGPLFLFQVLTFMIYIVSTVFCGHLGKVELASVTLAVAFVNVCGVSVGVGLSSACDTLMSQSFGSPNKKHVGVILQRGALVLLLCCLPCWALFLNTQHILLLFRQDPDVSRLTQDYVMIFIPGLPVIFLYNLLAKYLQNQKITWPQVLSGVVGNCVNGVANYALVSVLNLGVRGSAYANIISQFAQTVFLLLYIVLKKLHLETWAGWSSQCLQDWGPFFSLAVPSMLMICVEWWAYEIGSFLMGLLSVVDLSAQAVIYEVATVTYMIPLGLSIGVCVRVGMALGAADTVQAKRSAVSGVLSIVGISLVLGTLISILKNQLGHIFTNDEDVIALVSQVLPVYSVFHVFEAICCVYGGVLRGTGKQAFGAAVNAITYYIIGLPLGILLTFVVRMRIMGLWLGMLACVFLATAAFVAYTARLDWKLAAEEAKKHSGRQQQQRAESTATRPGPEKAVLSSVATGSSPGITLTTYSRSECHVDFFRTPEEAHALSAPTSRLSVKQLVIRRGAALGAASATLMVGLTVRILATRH
Experimental: The MDCK-II cells were treated to express the transporter of interest. […] For the uptake assay, the net transporter-mediated uptake-rate (V) of the substrate by each SLC transporter was calculated as follows: Transporter–mediatedupdaterate(pmol/min/cm^2)=(Cellularaccumulationincellsexpressingthetransporter)−(Meancellularaccumulationincontrolcells)/Surfacearea×incubationtime
(§1) Fold of activity and percent inhibition were determined as follows: Foldofactivity=(Meanuptakerate)transporterexpressingcells/(Meanuptakerate)controlcells Percentinhibition=100−100×(Transport‐mediatedupdaterate)withinhibitor/(Transport‐mediatedupdaterate)vehiclecontrol

[10] = biological target: T5, MATE1 (Homo sapiens, UniProt Q96FL8); experiment: as above; format: in vitro ADME; conditions: human, polarized monolayer of MDCK-II cells expressing MATE1; MATE1, No BSA, 100 μM
T5 construct: expressed in transfected cells; host or cells: MDCK-II cells
T5 sequence (Q96FL8 1-570): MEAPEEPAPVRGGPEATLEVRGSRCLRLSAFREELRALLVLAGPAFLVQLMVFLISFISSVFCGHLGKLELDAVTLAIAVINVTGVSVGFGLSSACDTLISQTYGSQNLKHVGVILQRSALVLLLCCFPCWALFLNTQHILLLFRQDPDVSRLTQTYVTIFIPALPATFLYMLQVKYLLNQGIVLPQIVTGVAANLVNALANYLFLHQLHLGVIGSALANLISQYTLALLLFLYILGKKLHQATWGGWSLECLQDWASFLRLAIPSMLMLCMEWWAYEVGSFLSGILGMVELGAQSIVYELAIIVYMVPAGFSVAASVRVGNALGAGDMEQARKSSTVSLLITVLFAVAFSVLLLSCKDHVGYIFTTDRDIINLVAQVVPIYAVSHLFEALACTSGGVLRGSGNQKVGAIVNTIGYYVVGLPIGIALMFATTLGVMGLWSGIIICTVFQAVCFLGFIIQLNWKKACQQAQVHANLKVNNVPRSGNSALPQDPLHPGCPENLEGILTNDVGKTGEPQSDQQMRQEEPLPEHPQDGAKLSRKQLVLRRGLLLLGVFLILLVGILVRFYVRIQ
Experimental: The MDCK-II cells were treated to express the transporter of interest. The transport of each probe substrate was determined by radiometric detection (Fig 1 in S1 File). […] For the uptake assay, the net transporter-mediated uptake-rate (V) of the substrate by each SLC transporter was calculated as follows: Transporter–mediatedupdaterate(pmol/min/cm^2)=(Cellularaccumulationincellsexpressingthetransporter)−(Meancellularaccumulationincontrolcells)/Surfacearea×incubationtime
as §1

[11] = biological target: T3, CYP1A2; experiment: in vitro; conditions: microsomes
[12] = biological target: T1, CYP2C8; experiment: CYP inhibition in human liver microsomes; conditions: human, human liver microsomes, probe paclitaxel
[13] = CYP activity (% of Control) 3A4 (Midazolam)
[14] = CYP activity (% of Control) 3A4 (Testosterone)

CYP2C9, sequence (P11712 whole entry): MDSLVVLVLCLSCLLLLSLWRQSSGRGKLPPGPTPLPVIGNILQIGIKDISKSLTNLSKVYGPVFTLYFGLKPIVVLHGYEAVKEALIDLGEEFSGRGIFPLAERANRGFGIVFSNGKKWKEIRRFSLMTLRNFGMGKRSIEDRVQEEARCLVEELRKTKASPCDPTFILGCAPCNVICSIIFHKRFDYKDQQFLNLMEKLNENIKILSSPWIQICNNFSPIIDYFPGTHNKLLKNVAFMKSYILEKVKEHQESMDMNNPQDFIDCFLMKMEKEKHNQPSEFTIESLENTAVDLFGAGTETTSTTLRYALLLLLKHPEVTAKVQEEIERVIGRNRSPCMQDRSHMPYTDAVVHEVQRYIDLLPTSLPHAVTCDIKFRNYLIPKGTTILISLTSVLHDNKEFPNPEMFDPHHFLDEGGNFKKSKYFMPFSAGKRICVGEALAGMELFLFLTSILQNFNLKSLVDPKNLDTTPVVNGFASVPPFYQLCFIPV

| SMILES | activity at 20 min, 10 µM [1] [%] | activity at 20 min, 10 µM [2] [%] | activity at 20 min, 10 µM [3] [%] | activity at 20 min, 10 µM [4] [%] | activity at 20 min, 10 µM [5] [%] | activity at 20 min, 10 µM [6, 13] [%] | activity at 20 min, 10 µM [6, 14] [%] | activity at 20 min, 10 µM [7] [%] | cardiovascular effect in combination with cocaine [8] | inhibition at 100 µM [9] [%] | inhibition at 100 µM [10] [%] | activity at 20 min, 10 µM [11] [%] | activity at 20 min, 10 µM [12] [%] |
| --- | --- | --- | --- | --- | --- | --- | --- | --- | --- | --- | --- | --- | --- |
| CC(C)(O)c1ccccc1CC[C@@H](SCC1(CC(=O)O)CC1)c1cccc(/C=C/c2ccc3ccc(Cl)cc3n2)c1 [Montelukast] | 75.4 ± 0.9 | 10.3 ± 0.7 | 88.4 ± 1.8 | 90.5 ± 1.3 | 105 ± 2 | 93.8 ± 3.9 | 93.1 ± 2 | 91 ± 1.8 |  |  |  |  |  |
| Cc1ncoc1-c1nnc(SCCCN2C[C@@H]3C[C@]3(c3ccc(C(F)(F)F)cc3F)C2)n1C [GSK598,809] |  |  |  |  |  |  |  |  | hypertension |  |  |  |  |
| CN/C(=N/CCSCc1nc[nH]c1C)NC#N [cimetidine, reference compound] |  |  |  |  |  |  |  |  |  | 95.9 ± 0.59 | 99.3 ± 0.22 |  |  |
| Cc1nc2c([nH]1)c(=O)n(C)c(=O)n2Cc1ccco1 [Furafylline] | 96.3 ± 1.4 |  | 94.7 ± 1.1 | 97.3 ± 2.9 | 94.3 ± 8.1 | 97.2 ± 4.7 | 95.1 ± 5.6 |  |  |  |  | 49 ± 5.3 | 89.9 ± 1.4 |
